Literature values as cited in US4096336A, “5,6-Benzo analogues or prostaglandin E” (Miles Laboratories, Inc., priority 1977, dated 1978).
Where two headings read alike, the source gives them in different places.

What was measured:
[1] = tested on: growth hormone; conditions: rats
[2] = tested on: gastric secretion; conditions: dogs
[3] = tested on: gastric secretion; conditions: man
[4] = tested on: ovarian progesterone secretion; conditions: sheep
[5] = tested on: thyroid activity; conditions: mice
[6] = tested on: adrenal glands; conditions: hypophysectimized rats
[7] = tested on: smooth muscle of the vas deferens; conditions: mammalian male reproductive system
[8] = tested on: motor pathways in the central nervous system
[9] = tested on: adrenergic nervie endings; conditions: guinea pig
[10] = tested on: tracheal smooth muscle; conditions: in vitro preparations
[11] = tested on: blood platelets; conditions: in vitro
[12] = tested on: female reproductive system
[13] = tested on: luteolytic factors; conditions: variety of mammals

| SMILES | gastric secretion [2] | release of growth hormone [1] | ovarian progesterone secretion [4] | thyroid activity [5] | steriodogenesis in the adrenal glands [6] | transmission in motor pathways [8] | transmitter release from adrenergic nerve endings [9] | effect on tracheal smooth muscle [10] | other results |
| --- | --- | --- | --- | --- | --- | --- | --- | --- | --- |
| CCCCC[C@H](O)/C=C/[C@H]1C=CC(=O)[C@@H]1CCCCCCC(=O)O [PGA1] | inhibit gastric secretion |  |  |  |  |  |  |  | synthesis of growth hormone [1]: increased synthesis of that hormone; gastric secretion [3]: exhibits similar activity in man |
| CCCCC[C@H](O)/C=C/[C@H]1[C@H](O)CC(=O)[C@@H]1CCCCCCC(=O)O [PGE1, prostaglandin E1] | inhibit gastric secretion | increase release of growth hormone | inhibit ovarian progesterone secretion | increase thyroid activity | stimulate steriodogenesis in the adrenal glands | retards | inhibit transmitter release | relax | effect on smooth muscle of the vas deferens [7]: contracts the smooth muscle of the vas deferens; thrombogenesis [11]: inhibits thrombogenesis in vitro |
| CCCCC[C@H](O)/C=C/[C@H]1[C@H](O)CC(=O)[C@@H]1C/C=C\CCCC(=O)O [PGE2] | inhibit gastric secretion | increase release of growth hormone |  | increase thyroid activity | stimulate steriodogenesis in the adrenal glands |  | inhibit transmitter release | relax | oxytocic effects ([12]; inducing labor): exerts potent oxytocic effects in inducing labor |
| CCCCC[C@H](O)/C=C/[C@@H]1[C@@H](CCCCCCC(=O)O)[C@@H](O)C[C@H]1O [PGF1α] |  |  | inhibit ovarian progesterone secretion | increase thyroid activity | stimulate steriodogenesis in the adrenal glands |  |  |  | luteolytic action [13]: act as luteolytic factors |
| CCCCC[C@H](O)/C=C/[C@@H]1[C@@H](CCCCCCC(=O)O)[C@H](O)C[C@H]1O [PGF1β] |  |  |  | increase thyroid activity |  |  |  |  |  |
| CCCCC[C@H](O)/C=C/[C@@H]1[C@@H](C/C=C\CCCC(=O)O)[C@@H](O)C[C@H]1O [PGF2α] |  |  |  |  |  | facilitates transmission in motor pathways in the central nervous system |  | contracts the smooth muscle | induction of spontaneous abortions ([12]; early pregnancy): induces spontaneous abortions in early pregnancy; effect on fertility / gestation ([12]; female reproductive system): has contragestational effects |
